Laboratory results published in paper PMC5490826 (Viruses, 2017).

How the values were obtained:
Assay type in all cases: binding
NS5B Δ21 1b BK = NS5B Δ21 1b BK (Hepatitis C virus (isolate BK), UniProt P26663); test: SPR (Biacore), kinetic two-state model, immobilized enzyme
NS5B Δ21 3a = NS5B Δ21 3a (Hepatitis C virus (isolate NZL1), UniProt Q81258); conditions: read-out: Lomibuvir / 3a (±SD); pH 7.4, 25 °C, 10 mM MgCl2, 130 mM NaCl, 3% DMSO; allosteric, thumb II site
NS5B Δ21 1b Con1 [1] = target: T1, NS5B Δ21 1b Con1 (Hepatitis C virus (isolate Con1), UniProt Q9WMX2); test: SPR (Biacore), kinetic two-state model, immobilized enzyme
NS5B Δ21 1b Con1 [2] = target: T1, NS5B Δ21 1b Con1; test: differential scanning fluorimetry (SYPRO Orange); conditions: 2 µM protein, 10 µM inhibitor, 50 mM Tris-HCl pH 7.5, up to 2% DMSO; allosteric, palm site; unreliable (text b33 differs from table; not confirmed by SPR)

Chain of NS5B Δ21 3a (Q81258 2431-3000, stated change not applied): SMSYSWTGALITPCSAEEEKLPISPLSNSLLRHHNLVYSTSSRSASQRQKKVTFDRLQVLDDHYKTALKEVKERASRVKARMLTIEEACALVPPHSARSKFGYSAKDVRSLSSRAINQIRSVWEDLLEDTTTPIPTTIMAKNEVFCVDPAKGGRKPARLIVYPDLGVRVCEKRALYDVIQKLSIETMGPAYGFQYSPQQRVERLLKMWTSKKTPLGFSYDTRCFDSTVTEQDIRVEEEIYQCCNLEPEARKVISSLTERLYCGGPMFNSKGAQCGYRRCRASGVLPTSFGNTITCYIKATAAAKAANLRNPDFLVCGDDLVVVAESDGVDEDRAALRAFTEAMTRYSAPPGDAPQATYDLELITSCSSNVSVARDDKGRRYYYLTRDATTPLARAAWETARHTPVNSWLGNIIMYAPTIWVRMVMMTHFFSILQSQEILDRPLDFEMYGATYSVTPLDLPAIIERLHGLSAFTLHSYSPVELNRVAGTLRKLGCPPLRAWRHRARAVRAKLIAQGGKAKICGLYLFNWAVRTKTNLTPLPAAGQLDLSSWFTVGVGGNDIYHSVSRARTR
Chain of NS5B Δ21 1b BK (P26663 2420-2989, stated change not applied): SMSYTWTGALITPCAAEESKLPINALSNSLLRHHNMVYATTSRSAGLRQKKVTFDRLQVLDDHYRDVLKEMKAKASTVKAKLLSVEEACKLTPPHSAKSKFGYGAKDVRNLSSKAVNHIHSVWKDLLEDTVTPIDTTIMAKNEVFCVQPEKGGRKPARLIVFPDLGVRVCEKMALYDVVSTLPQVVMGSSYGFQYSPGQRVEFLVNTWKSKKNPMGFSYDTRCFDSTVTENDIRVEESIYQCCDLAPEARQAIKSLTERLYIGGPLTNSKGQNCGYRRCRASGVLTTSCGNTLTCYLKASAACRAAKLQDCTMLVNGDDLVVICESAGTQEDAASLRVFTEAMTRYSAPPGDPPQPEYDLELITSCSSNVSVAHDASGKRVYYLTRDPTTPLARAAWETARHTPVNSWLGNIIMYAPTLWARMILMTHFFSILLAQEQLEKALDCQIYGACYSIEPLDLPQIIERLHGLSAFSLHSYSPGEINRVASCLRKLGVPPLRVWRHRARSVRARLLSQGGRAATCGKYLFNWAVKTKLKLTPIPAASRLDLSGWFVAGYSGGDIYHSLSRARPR

| Structure (SMILES) | Kd (NS5B Δ21 1b BK) [nM] | Kd (NS5B Δ21 3a) [nM] | Kd (NS5B Δ21 1b Con1 [1]) [nM] | 1b Con1 / ΔTm (NS5B Δ21 1b Con1 [2]) [°C] |
| --- | --- | --- | --- | --- |
| CC(C)(C)C#Cc1cc(N(C(=O)[C@H]2CC[C@H](C)CC2)[C@H]2CC[C@H](O)CC2)c(C(=O)O)s1 [lomibuvir] | 20 ± 0.4 | > 2000 | 19 ± 7 | – |
| CNC(=O)c1c(-c2ccc(F)cc2)oc2cc(N(CCO)S(C)(=O)=O)c(C3CC3)cc12 [nesbuvir] | – | – | – | 5 |
